Legend:
METTL3/14 = METTL3/14 (Homo sapiens (Human), UniProt Q86U44); assay: METTL3/14 methyltransferase assay (RapidFire mass spectrometry, RFMS); type: biochemical; settings: 5 nM METTL3/14, 0.2 μM RNA substrate, 0.5 μM SAM, 60 minutes at room temperature
Description: The enzymatic assay was established to determine IC50 values for inhibition of RNA methyltransferase activity. The enzyme used was full-length his-tagged METTL3 co-expressed with full length FLAG-tagged METTL14 in a baculovirus expression system. Enzymatic reactions were performed at room temperature in 384-well plates using a final reaction volume of 20 μL containing 20 mM TrisCl pH 7.6, 1 mM DTT, 0.01% Tween-20. 5 nM final concentration of METTL3/14 was pre-incubated with various compound concentrations for 10 minutes, followed by addition of 0.2 μM final concentration synthetic RNA substrate (5′P-[…]-3′) and 0.5 μM final concentration S-adenosyl-methionine (SAM). The reaction was incubated for a further 60 minutes at room temperature, and then quenched by the addition of 40 μL 7.5% TCA with two internal product standards (D4-SAH and 13C10-SAH). After termination, plates were sealed, centrifuged and stored at 4° C. until analysis.
RNA methyltransferase activity was measured label free using the RapidFire™ mass spectrometry (RF/MS) platform. Stopped and stable assay plates were analyzed on the Agilent RF300 integrated autosampler/solid-phase extraction (SPE) system coupled to an ABSciex 4000 mass spectrometer for the generation of the product S-adenosyl homocysteine (SAH) and normalized to the ratio of signal of the two internal product standards, respectively. Solvent A was water containing 0.1% (v/v) TCA. Solvent B was acetonitrile/0.1% ammonium acetate (8:2, v/v). More specifically, plates were centrifuged at 4350 rpm for 10 min, samples were aspirated under vacuum for 600 ms, then loaded onto a C18 solid-phase extraction cartridge and washed for 3 s with solvent A at a flow rate of 1.5 mL/min. Retained product and internal standards were eluted with solvent B at a flow rate of 1 mL/min for 3 s and finally the cartridge was re-equilibrated with solvent A for 500 ms. The mass transition for the product (SAH) was 384.9/135.9 Da. Transitions of the two internal product standards (IS1: D4-SAH and IS2: 13C10-SAH) were 389.1/135.8 Da and 395.0/134.2 Da, respectively. Ratios of SAH/IS1 and SAH/IS2 were used for normalization of matrix effects. IC50 values were calculated based on dilution series of individual compounds. Potency of a compound was measured at varied inhibitor concentrations and normalized to control wells without RNA substrate and without inhibition (DMSO only).

KASUMI-1 cells = assay: Kasumi cell proliferation CTG; type: cell-based; settings: Homo sapiens, Kasumi 1, 120 h, treated for 120 hours, CellTiter-Glo
Description: Cell culture: KASUMI-1 cells (ACC20, Leibniz-Institut DSMZ Deutsche Sammlung von Mikroorganismen und Zellkulturen GmbH) were grown in RPMI 1640 (31870-025, Gibco) supplemented with 20% fetal bovine serum (F1524, Gibco), 1 mM sodium pyruvate (11360-039, Gibco) and 2 mM Glutamax (35050-038, Gibco) in a 5% CO2 humidified incubator at 37° C.
Cell treatment and cell growth assessment: KASUMI-1 cells were seeded in ultra-low attachment 384-well culture plate (MS-9384WZ, SBio) at a final concentration of 250 000 cells/ml (35 μL/well) and treated for 120 hours with compounds inhibiting the METTL3/14 activity (10 serial semi-log dilutions, 30 μM as top concentration). Upon treatment, Kasumi1 cells were incubated for 10 min at RT with the CellTiter-Glo reagent (G7571, Promega). Measurement of the luminescence signal was performed on a microplate reader (Ensight, PerkinElmer).

Caov-3 cells = assay: Caov3 cell proliferation CTG; type: cell-based; settings: Homo sapiens, treated for 120 hours, CellTiter-Glo
Description: Cell treatment and cell growth assessment: 18 hours post-seeding in white 384-Viewplate (6007480, PerkinElmer) at 1500 cells/well, Caov3 cells were treated for 120 hours with compounds inhibiting the METTL3/14 activity (10 serial semi-log dilutions, 30 μM as top concentration). Upon treatment, Coav-3 cells were incubated for 10 min at RT with the CellTiter-Glo reagent (G7571, Promega). Measurement of the luminescence signal was performed on a microplate reader (Ensight, PerkinElmer).

METTL3/14, sequence (Q86U44 whole entry): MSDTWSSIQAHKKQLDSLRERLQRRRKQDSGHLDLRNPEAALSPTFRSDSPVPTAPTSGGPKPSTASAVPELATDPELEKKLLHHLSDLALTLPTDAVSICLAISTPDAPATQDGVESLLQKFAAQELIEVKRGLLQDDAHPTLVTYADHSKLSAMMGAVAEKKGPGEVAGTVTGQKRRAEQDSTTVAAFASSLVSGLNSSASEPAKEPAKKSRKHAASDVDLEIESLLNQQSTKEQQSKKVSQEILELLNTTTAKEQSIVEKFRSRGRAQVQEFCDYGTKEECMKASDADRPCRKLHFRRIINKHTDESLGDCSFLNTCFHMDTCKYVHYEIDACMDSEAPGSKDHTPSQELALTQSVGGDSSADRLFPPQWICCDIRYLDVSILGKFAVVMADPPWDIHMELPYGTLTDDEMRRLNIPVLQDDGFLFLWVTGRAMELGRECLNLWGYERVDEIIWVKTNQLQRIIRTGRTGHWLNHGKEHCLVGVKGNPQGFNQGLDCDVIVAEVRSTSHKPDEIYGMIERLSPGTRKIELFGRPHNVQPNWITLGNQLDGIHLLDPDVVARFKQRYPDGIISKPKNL
METTL3/14, sequence (Q9HCE5 whole entry partner): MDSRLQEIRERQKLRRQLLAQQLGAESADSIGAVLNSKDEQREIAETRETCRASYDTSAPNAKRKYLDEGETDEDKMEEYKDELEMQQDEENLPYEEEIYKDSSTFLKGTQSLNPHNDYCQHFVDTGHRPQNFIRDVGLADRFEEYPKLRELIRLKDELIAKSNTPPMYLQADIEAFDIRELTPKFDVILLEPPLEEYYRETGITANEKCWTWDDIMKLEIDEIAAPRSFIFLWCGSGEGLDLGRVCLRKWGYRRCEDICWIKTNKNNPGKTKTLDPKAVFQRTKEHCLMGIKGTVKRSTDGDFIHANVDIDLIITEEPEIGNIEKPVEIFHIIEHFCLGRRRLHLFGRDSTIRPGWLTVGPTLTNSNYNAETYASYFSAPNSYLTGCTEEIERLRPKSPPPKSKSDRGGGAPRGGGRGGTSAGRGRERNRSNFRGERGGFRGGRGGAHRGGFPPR

IC50 (METTL3/14) [µM]	SMILES	IC50 (KASUMI-1 cells) [µM]	IC50 (Caov-3 cells) [µM]
2.64	Nc1ncnc2c1c(Br)cn2[C@@H]1C[C@H](c2cccc(CN3CCC4(CCC4)C3)c2)[C@@H](O)[C@H]1O [Example 38, (1R,2S,3R,5R)-3-{4-amino-5-bromo-7H-pyrrolo[2,3-d]pyrimidin-7-yl}-5-[3-({6-azaspiro[3.4]octan-6-yl}methyl)phenyl]cyclopentane-1,2-diol]	2.95	6.76
0.123	Nc1ncnc2c1c(Br)cn2[C@@H]1O[C@H](CC/C=C/CNCc2ccccc2)[C@@H](O)[C@H]1O [Example 9, (2R,3R,4S,5R)-2-(4-amino-5-bromo-7H-pyrrolo[2,3-d]pyrimidin-7-yl)-5-((E)-5-(benzylamino)pent-3-en-1-yl)tetrahydrofuran-3,4-diol]	4.6	5.7
